Reference: US9334288B2, “Selective β-glucuronidase inhibitors as a treatment for side effects of camptothecin antineoplastic agents” (The University of North Carolina at Chapel Hill, priority 2009, dated 2016)

What was measured:
diarrhea = conditions: rats, literature (Fittkau et al. 2004); cited from earlier work
[1] = molecular target: β-glucuronidase activity in living E. coli cells (Escherichia coli, UniProt P05804); type: cell-based; set-up: The full-length E. coli β-glucuronidase gene was obtained from bacterial genomic DNA; expressed in transfected cells; host or cells: E. coli HB101 transformed with pET-28a-GUS
From the text: (§1) Thus, two other β-glucuronidase activity assays were employed to examine the potency of inhibitors both in vitro and in cell-based studies. An absorbance assay based on the conversion of p-nitrophenyl glucuronide (PNPG) to p-nitrophenol (PNP) (Szasz (1967) Clin Chem 13:752-759), which absorbs at 410 nm, was employed as the primary in vitro assay (FIG. 9). A secondary assay involving the conversion of phenolphthalein glucuronide (PheG) to phenolphthalein (Phe), which absorbs at 540 nm, was also employed (FIG. 9). Id.
HB101 E. coli cells were grown to an OD600 of 0.6 in LB medium. These cells were then used for an in vivo assay. Reaction time and temperature were the same as previously described (see In Vitro β-Glucuronidase Assays). […] Absorbance was measured at the appropriate wavelength, depending on the substrate. […]
HB101 E. coli cells, transformed with the pET-28a vector containing the β-Glucuronidase gene, were grown to an OD600 of 0.6 in LB medium. […] Absorbance was measured at the appropriate wavelength, either 410 nm or 540 nm. Cell survivability in the presence of the nine inhibitors was assessed by plating a 10^−5 dilution of 200 μl of saturated cells after incubation with 100 μM of each inhibitor for 6 hours. […] Plated cells were allowed to incubate at 37° C. overnight, and colonies were counted to quantify the viability of the cells.

E. coli β-glucuronidase = E. coli β-glucuronidase (Escherichia coli, UniProt P05804); type: biochemical; set-up: The full-length E. coli β-glucuronidase gene was obtained from bacterial genomic DNA; 6xHis (N); made in house; host or cells: E. coli BL21-DE3; conditions: in vitro, using PNPG
From the text: as §1
In vitro assays were conducted at 50 μL total volume in 96-well, clear bottom assay plates (Costar). Substrates consisted of PNPG or PheG (FIG. 9) and were acquired from Sigma. The presence of the hydrolysis product of each, PNP or Phe, was measured by absorbance at 410 nm or 540 nm, respectively. […] Absorbance was measured using a PHERAstar Plus microplate reader (BMG Labtech).
In vitro assays were conducted at 50 μL total volume in 96-well, clear bottom assay plates (Costar). […] The presence of the hydrolysis product of each, p-nitrophenol (PNP) and phenolphthalein (Phe), was measured by absorbance at 410 nm or 540 nm, respectively. […] Absorbance was measured using a PHERAstar Plus microplate reader (BMG Labtech). Data acquired was analyzed using Microsoft Excel and Sigmaplot 11.0.

Sequence of β-glucuronidase activity in living E. coli cells (P05804 whole entry): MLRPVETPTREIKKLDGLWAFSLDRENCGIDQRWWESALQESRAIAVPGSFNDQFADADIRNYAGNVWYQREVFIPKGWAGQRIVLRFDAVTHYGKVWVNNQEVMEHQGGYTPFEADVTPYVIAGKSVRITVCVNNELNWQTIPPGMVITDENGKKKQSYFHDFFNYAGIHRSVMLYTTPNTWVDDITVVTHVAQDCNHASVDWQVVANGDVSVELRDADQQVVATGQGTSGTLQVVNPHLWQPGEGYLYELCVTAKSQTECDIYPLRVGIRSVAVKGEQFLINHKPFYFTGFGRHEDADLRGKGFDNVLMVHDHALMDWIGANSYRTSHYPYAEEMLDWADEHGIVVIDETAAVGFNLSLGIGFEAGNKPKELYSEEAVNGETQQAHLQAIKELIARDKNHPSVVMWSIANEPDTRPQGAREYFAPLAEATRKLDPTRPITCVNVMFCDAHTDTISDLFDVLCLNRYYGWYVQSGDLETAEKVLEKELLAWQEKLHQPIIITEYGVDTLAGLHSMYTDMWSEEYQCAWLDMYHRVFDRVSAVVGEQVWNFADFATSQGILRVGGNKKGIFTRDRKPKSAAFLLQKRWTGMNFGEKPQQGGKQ
Sequence of E. coli β-glucuronidase (P05804 whole entry): as above

SMILES | reversal of CPT-11 diarrhea / epithelial cell death (diarrhea) | efficacy in living cells [1] | IC50 (E. coli β-glucuronidase)
O=C1OC(C(O)C(=O)O)C(O)C1O (stereo not drawn) [saccharic acid 1,4-lactone] | partially reversed |  | 
O=C(O)[C@H]1NC(=O)[C@H](O)[C@@H](O)[C@@H]1O [GDL, glucaro-δ-lactam, reference compound] |  | ineffective | 45 ± 3.1 µM
